Results: ChEMBL document CHEMBL5537181 (J Med Chem, 2024)
Active and inactive are the calls of the source.

How the values were obtained:
Format in all cases: functional, organism-based
Rattus norvegicus [1] = assay: Antinociceptive activity in Chronic constriction injury rat model assessed as reduction in pain at 5 mg/kg,IM administration and measured after 2 hrs
Rattus norvegicus [2] = assay: Analgesic activity in Chronic constriction injury rat model assessed as increase in paw withdrawal latency at 5 mg/kg,IM administration and measured for 0.5 to 48 hrs; details: time 0.5-48 hrs
Rattus norvegicus [3] = assay: Analgesic activity in Chronic constriction injury rat model assessed as increase in paw withdrawal threshold at 5 mg/kg,IM administration and measured for 0.5 to 48 hrs; details: time 0.5-48 hrs
Rattus norvegicus [4] = assay: Antinociceptive activity in Chronic constriction injury rat model assessed as reduction in pain at 5 mg/kg,IM administration and measured after 12 hrs
Rattus norvegicus [5] = assay: Analgesic activity in Chronic constriction injury rat model assessed as increase in paw withdrawal latency at 30 mg/kg,po administration and measured for 0.5 to 48 hrs; details: time 0.5-48 hrs
Rattus norvegicus [6] = assay: Analgesic activity in Chronic constriction injury rat model assessed as increase in paw withdrawal threshold at 30 mg/kg,po administration and measured for 0.5 to 48 hrs; details: time 0.5-48 hrs

Measured: Activity

CN1CC[C@]23c4c5ccc(O)c4O[C@H]2[C@@H](O)C=C[C@H]3[C@H]1C5
active: Rattus norvegicus [1] | Rattus norvegicus [2] | Rattus norvegicus [3] | Rattus norvegicus [4]

CC(C)C[C@H](CN)CC(=O)O
active: Rattus norvegicus [5] | Rattus norvegicus [6]
